Target: farnesyl protein transferase (Homo sapiens, UniProt P49354+P49356)
Assay: FPT IC50, inhibition of farnesyl protein transferase, in vitro enzyme assay (procedure of WO 95/10516)
Format: biochemical
Details: one range stated for the whole group of listed compounds, no individual values
Description: (§1) FPT IC50 (inhibition of farnesyl protein transferase, in vitro enzyme assay) and COS Cell IC50 (Cell-Based Assay) were determined following the assay procedures described in WO 95/10516, published April 20, 1995. GGPT IC50 (inhibition of geranylgeranyl protein transferase, in vitro enzyme assay), Cell Mat Assay, and anti-tumor activity (in vivo anti-tumor studies) could be determined by the assay procedures described in WO 95/10516. The disclosure of WO 95/10516 is incorporated herein by reference thereto.

Sequence of farnesyl protein transferase (P49356 whole entry, one chain of several): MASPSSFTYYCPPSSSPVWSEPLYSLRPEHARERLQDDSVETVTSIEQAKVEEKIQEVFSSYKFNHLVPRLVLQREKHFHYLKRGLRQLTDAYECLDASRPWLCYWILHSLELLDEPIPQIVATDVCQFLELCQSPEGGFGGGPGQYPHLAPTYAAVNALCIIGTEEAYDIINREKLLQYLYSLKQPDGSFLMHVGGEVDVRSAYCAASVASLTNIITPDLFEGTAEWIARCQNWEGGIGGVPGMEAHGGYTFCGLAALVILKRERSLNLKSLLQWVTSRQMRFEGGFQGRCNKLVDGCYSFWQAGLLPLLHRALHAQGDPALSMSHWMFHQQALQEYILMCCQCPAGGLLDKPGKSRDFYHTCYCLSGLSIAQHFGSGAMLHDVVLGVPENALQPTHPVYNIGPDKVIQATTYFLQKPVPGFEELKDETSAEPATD

SMILES | IC50 [nM]
O=C(CN1CCC2(CC1)OCCO2)N1CCC([C@H]2c3ncc(Br)cc3CCc3cc(Cl)cc(Br)c32)CC1 [Compound 24.0] | ≥ 1.9
CC(=O)NN=C1CCC(CC(=O)N2CCC([C@H]3c4ncc(Br)cc4CCc4cc(Cl)cc(Br)c43)CC2)CC1 (some centres unmarked) [Compound 30.0] | ≥ 1.9
O=C(CC1CCC2(CC1)OCCO2)N1CCC([C@H]2c3ncc(Br)cc3CCc3cc(Cl)cc(Br)c32)CC1 [Compound 22.0] | ≥ 1.9
CC(C)(C)OC(=O)NC1CCCC(C(=O)N2CCC([C@H]3c4ncc(Br)cc4CCc4cc(Cl)cc(Br)c43)CC2)C1 (some centres unmarked) [Compound 43.0] | ≥ 1.9
O=C([C@H]1CC[C@@H](O)CC1)N1CCC([C@H]2c3ncc(Br)cc3CCc3cc(Cl)cc(Br)c32)CC1 [Compound 70.0] | ≥ 1.9
CS(=O)(=O)N[C@H]1CC[C@@H](C(=O)N2CCC([C@H]3c4ncc(Br)cc4CCc4cc(Cl)cc(Br)c43)CC2)CC1 [Compound 40.0] | ≥ 1.9
O=C(C1CCC2(CC1)OCCO2)N1CCC([C@H]2c3ncc(Br)cc3CCc3cc(Cl)cc(Br)c32)CC1 [Compound 34.0] | ≥ 1.9
N[C@H]1CC[C@@H](C(=O)N2CCC([C@H]3c4ncc(Br)cc4CCc4cc(Cl)cc(Br)c43)CC2)CC1 [Compound 37.0] | ≥ 1.9
O=C1CCCCC1CCC(=O)N1CCC([C@H]2c3ncc(Br)cc3CCc3cc(Cl)cc(Br)c32)CC1 (some centres unmarked) [Compound 19.0] | ≥ 1.9
O=C(O)CON=C1CCC(CC(=O)N2CCC([C@H]3c4ncc(Br)cc4CCc4cc(Cl)cc(Br)c43)CC2)CC1 (some centres unmarked) [Compound 31.0] | ≥ 1.9
NC(=O)NC1CCCC(C(=O)N2CCC([C@H]3c4ncc(Br)cc4CCc4cc(Cl)cc(Br)c43)CC2)C1 (some centres unmarked) [Compound 45.0] | ≥ 1.9
O=C1CCC(=CC(=O)N2CCC([C@H]3c4ncc(Br)cc4CCc4cc(Cl)cc(Br)c43)CC2)CC1 [Compound 16.0] | ≥ 1.9
O=C1CCN(CC(=O)N2CCC([C@H]3c4ncc(Br)cc4CCc4cc(Cl)cc(Br)c43)CC2)CC1 [Compound 14.0] | ≥ 1.9
CON=C1CCC(C(=O)N2CCC([C@H]3c4ncc(Br)cc4CCc4cc(Cl)cc(Br)c43)CC2)CC1 (some centres unmarked) [Compound 35.0] | ≥ 1.9
O=C1CCC(CC(=O)N2CCC([C@H]3c4ncc(Br)cc4CCc4cc(Cl)cc(Br)c43)CC2)CC1 [Compound 13.0] | ≥ 1.9
CC(C)(C)OC(=O)N[C@H]1CC[C@@H](C(=O)N2CCC([C@H]3c4ncc(Br)cc4CCc4cc(Cl)cc(Br)c43)CC2)CC1 [Compound 36.0] | ≥ 1.9
NC(=O)NN=C1CCC(CC(=O)N2CCC([C@H]3c4ncc(Br)cc4CCc4cc(Cl)cc(Br)c43)CC2)CC1 (some centres unmarked) [Compound 29.0] | ≥ 1.9
O=C(CN1CCC(=NO)CC1)N1CCC([C@H]2c3ncc(Br)cc3CCc3cc(Cl)cc(Br)c32)CC1 [Compound 26.0] | ≥ 1.9
O=C1CCC(C(=O)N2CCC([C@H]3c4ncc(Br)cc4CCc4cc(Cl)cc(Br)c43)CC2)CC1 [Compound 33.0] | ≥ 1.9

Now from value to compound:

IC50 [nM] | SMILES
≥ 1.9 | CC(C)(C)[Si](C)(C)OCCON=C1CCC(CC(=O)N2CCC([C@H]3c4ncc(Br)cc4CCc4cc(Cl)cc(Br)c43)CC2)CC1 (some centres unmarked) [Compound 32.0]
≥ 1.9 | CCOC(=O)C(=O)NC1CCCC(C(=O)N2CCC([C@H]3c4ncc(Br)cc4CCc4cc(Cl)cc(Br)c43)CC2)C1 (some centres unmarked) [Compound 46.0]
≥ 1.9 | CCOC(=O)C(=O)N[C@H]1CC[C@@H](C(=O)N2CCC([C@H]3c4ncc(Br)cc4CCc4cc(Cl)cc(Br)c43)CC2)CC1 [Compound 39.0]
≥ 1.9 | NC(=O)C(=O)NC1CCCC(C(=O)N2CCC([C@H]3c4ncc(Br)cc4CCc4cc(Cl)cc(Br)c43)CC2)C1 (some centres unmarked) [Compound 49.1]
≥ 1.9 | O=C([C@H]1CC[C@H](O)CC1)N1CCC([C@H]2c3ncc(Br)cc3CCc3cc(Cl)cc(Br)c32)CC1 [Compound 68.0]
≥ 1.9 | O=C(C=C1CCC2(CC1)OCCO2)N1CCC([C@H]2c3ncc(Br)cc3CCc3cc(Cl)cc(Br)c32)CC1 [Compound 21.0]
≥ 1.9 | NC1CCCC(C(=O)N2CCC([C@H]3c4ncc(Br)cc4CCc4cc(Cl)cc(Br)c43)CC2)C1 (some centres unmarked) [Compound 44.0]
≥ 1.9 | COc1ccc2c(c1)CC(CC(=O)N1CCC([C@H]3c4ncc(Br)cc4CCc4cc(Cl)cc(Br)c43)CC1)C2=O (single isomer, unassigned) [Compound 17.0A]
≥ 1.9 | CON=C1CCN(CC(=O)N2CCC([C@H]3c4ncc(Br)cc4CCc4cc(Cl)cc(Br)c43)CC2)CC1 [Compound 27.0]
≥ 1.9 | NC(=O)N[C@H]1CC[C@@H](C(=O)N2CCC([C@H]3c4ncc(Br)cc4CCc4cc(Cl)cc(Br)c43)CC2)CC1 [Compound 38.0]
≥ 1.9 | CON=C1CCC(CC(=O)N2CCC([C@H]3c4ncc(Br)cc4CCc4cc(Cl)cc(Br)c43)CC2)CC1 (some centres unmarked) [Compound 25.0]
≥ 1.9 | C[C@]1(CCC(=O)N2CCC([C@H]3c4ncc(Br)cc4CCc4cc(Cl)cc(Br)c43)CC2)CCCCC1=O [Compound 20.0]
≥ 1.9 | O=C(CC1CCC(=NO)CC1)N1CCC([C@H]2c3ncc(Br)cc3CCc3cc(Cl)cc(Br)c32)CC1 (some centres unmarked) [Compound 23.0]
≥ 1.9 | O=C1CCCCC1CC(=O)N1CCC([C@H]2c3ncc(Br)cc3CCc3cc(Cl)cc(Br)c32)CC1 (some centres unmarked) [Compound 18.0]
≥ 1.9 | O=C(CN1CCC2(CC1)SCCS2)N1CCC([C@H]2c3ncc(Br)cc3CCc3cc(Cl)cc(Br)c32)CC1 [Compound 28.0]

System: COS Cell
Assay: COS Cell IC50, cell-based assay (procedure of WO 95/10516)
Details: not given
Description: as §1

SMILES | IC50 [nM]
CC(=O)O[C@H]1CC[C@@H](C(=O)N2CCC([C@H]3c4ncc(Br)cc4CCc4cc(Cl)cc(Br)c43)CC2)CC1 [Compound 69.0] | 30
